# Reference: patent US9546156B2, “N-bicyclic aryl,N'-pyrazolyl urea, thiourea, guanidine cyanoguanidine compounds as TrkA kinase inhibitors” (Array BioPharma Inc., priority 2012, dated 2017)
# Assays:
# [1] = biological target: T1, His-tagged recombinant human TrkA (Homo sapiens, UniProt P04629); test: TrkA LanthaScreen Eu Kinase Binding Assay; conditions: averaged IC50; TR-FRET binding assay, 60 min, 22° C.; read-out: TrkA Enzyme IC50
# T1 construct: 6HIS tagged cytoplasmic domain from Invitrogen, Catalog No. PV3144; purchased Invitrogen PV3144
# Description: TrkA binding activity was determined in a TrkA LanthaScreen™ Eu Kinase Binding Assay. 5 nM His-tagged recombinant human TrkA (6HIS tagged cytoplasmic domain from Invitrogen, Catalog No. PV3144) was incubated with 4 nM Alexa-Fluor® Tracer 236 (Invitrogen Cat. No. PV5592), 2 nM biotinylated anti-His (Invitrogen Cat. No. PV6090), and 2 nM europium-labeled Streptavidin (Invitrogen Cat. No. PV5899), in buffer (25 mM MOPS, pH 7.5, 5 mM MgCl2, 0.005% Triton X-100). Three fold serial dilutions of compounds of the invention in DMSO were added to a final percentage of 2% DMSO. After 60-minute incubation at 22° C., the reaction was measured using the EnVision multimode plate reader (PerkinElmer) via TR-FRET dual wavelength detection at […]. The percent of control was calculated using a ratiometric emission factor. The IC50 values were determined by fitting a four parameter model to the percent of control data.
# Table A provides averaged IC50 values for compounds of the invention when tested in the assay of Example A, where A represents an averaged IC50 value <100 nM; B represents an averaged IC50 value from 100 to 1,000 nM; and C represents an averaged IC50 value from 1,000 to 10,000 nM.
# ALK = biological target: T2, ALK (Homo sapiens, UniProt Q9UM73); test: Off-target kinase profiling (KinaseProfiler); assay type: biochemical; conditions: 10 μM, ATP near Km
# T2 construct: purchased Millipore, Inc. (KinaseProfiler service)
# Description: (§1) A representative compound (Example 16) of the invention was tested for off-target kinase activity at a concentration of 10 μM by Millipore, Inc. in their KinaseProfiler™ service against all the kinases available in their full kinase panel. The compound was run in duplicate at a concentration of ATP near the Km for each individual kinase according to Millipore's specifications. The results are shown in Table B. Data are reported as percent of control (POC) and are the average of the two replicates.
# ALK4 = biological target: T3, ALK4 (Homo sapiens, UniProt P36896); test: Off-target kinase profiling (KinaseProfiler); assay type: biochemical; conditions: 10 μM, ATP near Km
# T3 construct: purchased Millipore, Inc. (KinaseProfiler service)
# Description: as §1
# Bmx = biological target: T4, Bmx (Homo sapiens, UniProt P51813); test: Off-target kinase profiling (KinaseProfiler); assay type: biochemical; conditions: 10 μM, ATP near Km
# T4 construct: purchased Millipore, Inc. (KinaseProfiler service)
# Description: as §1
# CAMK1 = biological target: T5, CAMK1 (Homo sapiens, UniProt Q14012); test: Off-target kinase profiling (KinaseProfiler); assay type: biochemical; conditions: 10 μM, ATP near Km
# T5 construct: purchased Millipore, Inc. (KinaseProfiler service)
# Description: as §1
# CAMK2g = biological target: T6, CAMK2g (Homo sapiens, UniProt Q13555); test: Off-target kinase profiling (KinaseProfiler); assay type: biochemical; conditions: 10 μM, ATP near Km
# T6 construct: purchased Millipore, Inc. (KinaseProfiler service)
# T6 sequence (Q13555 whole entry): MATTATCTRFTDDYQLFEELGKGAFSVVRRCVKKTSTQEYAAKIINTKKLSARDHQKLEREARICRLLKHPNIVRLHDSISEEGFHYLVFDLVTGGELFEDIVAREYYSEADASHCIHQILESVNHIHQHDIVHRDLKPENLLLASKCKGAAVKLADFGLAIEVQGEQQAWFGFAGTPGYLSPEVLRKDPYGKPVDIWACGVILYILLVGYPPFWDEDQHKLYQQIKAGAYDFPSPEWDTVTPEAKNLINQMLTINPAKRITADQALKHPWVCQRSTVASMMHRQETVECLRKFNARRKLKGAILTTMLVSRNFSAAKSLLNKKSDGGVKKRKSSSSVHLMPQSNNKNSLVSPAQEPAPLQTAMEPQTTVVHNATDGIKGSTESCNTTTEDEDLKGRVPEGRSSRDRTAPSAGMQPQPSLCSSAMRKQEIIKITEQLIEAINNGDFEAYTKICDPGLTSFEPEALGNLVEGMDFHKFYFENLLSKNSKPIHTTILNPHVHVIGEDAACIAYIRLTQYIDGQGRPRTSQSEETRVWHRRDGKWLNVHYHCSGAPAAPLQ
# Description: as §1
# CDK2/cyclinE = biological target: T7, CDK2/cyclinE (Homo sapiens, UniProt P24941); test: Off-target kinase profiling (KinaseProfiler); assay type: biochemical; conditions: 10 μM, ATP near Km
# T7 construct: purchased Millipore, Inc. (KinaseProfiler service)
# Description: as §1
# CK1gamma3 = biological target: T8, CK1gamma3 (Homo sapiens, UniProt Q9Y6M4); test: Off-target kinase profiling (KinaseProfiler); assay type: biochemical; conditions: 10 μM, ATP near Km
# T8 construct: purchased Millipore, Inc. (KinaseProfiler service)
# Description: as §1
# CK2alpha2 = biological target: T9, CK2alpha2 (Homo sapiens, UniProt P19784); test: Off-target kinase profiling (KinaseProfiler); assay type: biochemical; conditions: 10 μM, ATP near Km
# T9 construct: purchased Millipore, Inc. (KinaseProfiler service)
# Description: as §1
# EGFR = biological target: T10, EGFR (Homo sapiens, UniProt P00533); test: Off-target kinase profiling (KinaseProfiler); assay type: biochemical; conditions: 10 μM, ATP near Km
# T10 construct: purchased Millipore, Inc. (KinaseProfiler service)
# Description: as §1
# EphB1 = biological target: T11, EphB1 (Homo sapiens, UniProt P54762); test: Off-target kinase profiling (KinaseProfiler); assay type: biochemical; conditions: 10 μM, ATP near Km
# T11 construct: purchased Millipore, Inc. (KinaseProfiler service)
# Description: as §1
# EphB3 = biological target: T12, EphB3 (Homo sapiens, UniProt P54753); test: Off-target kinase profiling (KinaseProfiler); assay type: biochemical; conditions: 10 μM, ATP near Km
# T12 construct: purchased Millipore, Inc. (KinaseProfiler service)
# T12 sequence (P54753 34-998): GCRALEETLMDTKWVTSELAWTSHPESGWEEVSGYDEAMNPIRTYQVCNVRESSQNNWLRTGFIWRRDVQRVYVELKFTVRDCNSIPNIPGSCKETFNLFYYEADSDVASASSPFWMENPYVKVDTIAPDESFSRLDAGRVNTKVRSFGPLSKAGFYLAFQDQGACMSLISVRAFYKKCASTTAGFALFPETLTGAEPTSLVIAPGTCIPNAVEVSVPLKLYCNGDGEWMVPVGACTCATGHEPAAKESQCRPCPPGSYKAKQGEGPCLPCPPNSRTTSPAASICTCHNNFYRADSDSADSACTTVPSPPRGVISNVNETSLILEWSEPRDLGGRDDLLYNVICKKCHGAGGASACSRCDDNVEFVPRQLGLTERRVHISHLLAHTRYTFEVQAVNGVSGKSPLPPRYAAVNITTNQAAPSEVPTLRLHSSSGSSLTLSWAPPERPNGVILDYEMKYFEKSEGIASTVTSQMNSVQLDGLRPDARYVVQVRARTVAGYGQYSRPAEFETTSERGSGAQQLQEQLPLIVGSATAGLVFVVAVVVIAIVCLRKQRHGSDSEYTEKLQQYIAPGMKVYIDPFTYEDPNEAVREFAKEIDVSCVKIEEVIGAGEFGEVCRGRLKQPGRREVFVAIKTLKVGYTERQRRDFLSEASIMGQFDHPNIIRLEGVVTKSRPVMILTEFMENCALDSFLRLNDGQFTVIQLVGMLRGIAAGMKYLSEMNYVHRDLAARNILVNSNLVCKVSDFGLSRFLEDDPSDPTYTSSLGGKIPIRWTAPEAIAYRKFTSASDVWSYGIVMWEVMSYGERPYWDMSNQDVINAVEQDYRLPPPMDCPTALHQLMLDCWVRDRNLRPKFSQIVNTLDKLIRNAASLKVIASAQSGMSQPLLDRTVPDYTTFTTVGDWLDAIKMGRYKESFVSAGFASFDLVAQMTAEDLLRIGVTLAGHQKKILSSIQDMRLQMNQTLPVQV
# Description: as §1
# FGFR4 = biological target: T13, FGFR4 (Homo sapiens, UniProt P22455); test: Off-target kinase profiling (KinaseProfiler); assay type: biochemical; conditions: 10 μM, ATP near Km
# T13 construct: purchased Millipore, Inc. (KinaseProfiler service)
# Description: as §1
# Fer = biological target: T14, Fer (Homo sapiens, UniProt P16591); test: Off-target kinase profiling (KinaseProfiler); assay type: biochemical; conditions: 10 μM, ATP near Km
# T14 construct: purchased Millipore, Inc. (KinaseProfiler service)
# Description: as §1
# Fgr = biological target: T15, Fgr (Homo sapiens, UniProt P09769); test: Off-target kinase profiling (KinaseProfiler); assay type: biochemical; conditions: 10 μM, ATP near Km
# T15 construct: purchased Millipore, Inc. (KinaseProfiler service)
# Description: as §1
# GRK7 = biological target: T16, GRK7 (Homo sapiens, UniProt Q8WTQ7); test: Off-target kinase profiling (KinaseProfiler); assay type: biochemical; conditions: 10 μM, ATP near Km
# T16 construct: purchased Millipore, Inc. (KinaseProfiler service)
# Description: as §1
# IR = biological target: T17, IR (Homo sapiens, UniProt P06213); test: Off-target kinase profiling (KinaseProfiler); assay type: biochemical; conditions: 10 μM, ATP near Km
# T17 construct: purchased Millipore, Inc. (KinaseProfiler service)
# Description: as §1
# KDR = biological target: T18, KDR (Homo sapiens, UniProt P35968); test: Off-target kinase profiling (KinaseProfiler); assay type: biochemical; conditions: 10 μM, ATP near Km
# T18 construct: purchased Millipore, Inc. (KinaseProfiler service)
# Description: as §1
# MAP3K5 = biological target: T19, MAP3K5 (Homo sapiens, UniProt Q99683); test: Off-target kinase profiling (KinaseProfiler); assay type: biochemical; conditions: 10 μM, ATP near Km
# T19 construct: purchased Millipore, Inc. (KinaseProfiler service)
# Description: as §1
# MAP4K2 = biological target: T20, MAP4K2 (Homo sapiens, UniProt Q12851); test: Off-target kinase profiling (KinaseProfiler); assay type: biochemical; conditions: 10 μM, ATP near Km
# T20 construct: purchased Millipore, Inc. (KinaseProfiler service)
# T20 sequence (Q12851 whole entry): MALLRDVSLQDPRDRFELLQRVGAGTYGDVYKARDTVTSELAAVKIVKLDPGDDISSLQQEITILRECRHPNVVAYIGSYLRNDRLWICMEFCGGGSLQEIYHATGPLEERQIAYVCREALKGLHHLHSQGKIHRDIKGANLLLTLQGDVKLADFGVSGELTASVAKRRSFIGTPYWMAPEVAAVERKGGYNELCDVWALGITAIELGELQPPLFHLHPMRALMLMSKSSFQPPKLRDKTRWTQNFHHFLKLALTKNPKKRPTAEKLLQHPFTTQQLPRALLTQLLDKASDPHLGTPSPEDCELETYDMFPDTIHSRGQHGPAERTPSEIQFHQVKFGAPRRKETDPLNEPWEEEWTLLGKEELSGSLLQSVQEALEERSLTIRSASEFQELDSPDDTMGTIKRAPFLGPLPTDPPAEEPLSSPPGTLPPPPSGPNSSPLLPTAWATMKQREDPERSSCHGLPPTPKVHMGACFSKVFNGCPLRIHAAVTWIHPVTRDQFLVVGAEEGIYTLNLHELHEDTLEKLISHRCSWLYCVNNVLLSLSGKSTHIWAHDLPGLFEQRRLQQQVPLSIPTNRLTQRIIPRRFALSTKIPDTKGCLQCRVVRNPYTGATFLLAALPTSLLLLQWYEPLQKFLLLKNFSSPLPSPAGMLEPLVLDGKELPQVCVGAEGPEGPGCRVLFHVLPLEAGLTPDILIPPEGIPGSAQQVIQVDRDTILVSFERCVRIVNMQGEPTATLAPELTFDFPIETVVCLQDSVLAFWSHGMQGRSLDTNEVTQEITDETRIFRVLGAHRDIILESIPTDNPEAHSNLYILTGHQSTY
# Description: as §1
# MINK = biological target: T21, MINK (Homo sapiens, UniProt Q8N4C8); test: Off-target kinase profiling (KinaseProfiler); assay type: biochemical; conditions: 10 μM, ATP near Km
# T21 construct: purchased Millipore, Inc. (KinaseProfiler service)
# Description: as §1
# MSSK1 = biological target: T22, MSSK1 (Homo sapiens, UniProt Q9UPE1); test: Off-target kinase profiling (KinaseProfiler); assay type: biochemical; conditions: 10 μM, ATP near Km
# T22 construct: purchased Millipore, Inc. (KinaseProfiler service)
# Description: as §1
# MYLK = biological target: T23, MYLK (Homo sapiens, UniProt Q15746); test: Off-target kinase profiling (KinaseProfiler); assay type: biochemical; conditions: 10 μM, ATP near Km
# T23 construct: purchased Millipore, Inc. (KinaseProfiler service)
# Description: as §1
# MuSK = biological target: T24, MuSK (Homo sapiens, UniProt O15146); test: Off-target kinase profiling (KinaseProfiler); assay type: biochemical; conditions: 10 μM, ATP near Km
# T24 construct: purchased Millipore, Inc. (KinaseProfiler service)
# Description: as §1
# NEK2 = biological target: T25, NEK2 (Homo sapiens, UniProt P51955); test: Off-target kinase profiling (KinaseProfiler); assay type: biochemical; conditions: 10 μM, ATP near Km
# T25 construct: purchased Millipore, Inc. (KinaseProfiler service)
# T25 sequence (P51955 whole entry): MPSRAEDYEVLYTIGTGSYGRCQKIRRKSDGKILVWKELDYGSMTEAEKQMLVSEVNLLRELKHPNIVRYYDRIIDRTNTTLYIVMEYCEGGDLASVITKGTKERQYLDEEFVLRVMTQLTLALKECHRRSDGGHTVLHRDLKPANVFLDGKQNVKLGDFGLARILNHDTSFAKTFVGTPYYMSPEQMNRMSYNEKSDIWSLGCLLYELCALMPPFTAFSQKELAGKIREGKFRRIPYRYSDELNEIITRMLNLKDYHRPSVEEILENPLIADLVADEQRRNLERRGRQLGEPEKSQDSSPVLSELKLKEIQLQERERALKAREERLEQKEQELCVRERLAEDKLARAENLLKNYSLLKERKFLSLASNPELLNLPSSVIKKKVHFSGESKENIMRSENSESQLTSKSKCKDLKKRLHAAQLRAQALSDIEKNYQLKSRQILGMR
# Description: as §1
# PAK5 = biological target: T26, PAK5 (Homo sapiens, UniProt Q9P286); test: Off-target kinase profiling (KinaseProfiler); assay type: biochemical; conditions: 10 μM, ATP near Km
# T26 construct: purchased Millipore, Inc. (KinaseProfiler service)
# Description: as §1
# PKCiota = biological target: T27, PKCiota (Homo sapiens, UniProt P41743); test: Off-target kinase profiling (KinaseProfiler); assay type: biochemical; conditions: 10 μM, ATP near Km
# T27 construct: purchased Millipore, Inc. (KinaseProfiler service)
# T27 sequence (P41743 whole entry): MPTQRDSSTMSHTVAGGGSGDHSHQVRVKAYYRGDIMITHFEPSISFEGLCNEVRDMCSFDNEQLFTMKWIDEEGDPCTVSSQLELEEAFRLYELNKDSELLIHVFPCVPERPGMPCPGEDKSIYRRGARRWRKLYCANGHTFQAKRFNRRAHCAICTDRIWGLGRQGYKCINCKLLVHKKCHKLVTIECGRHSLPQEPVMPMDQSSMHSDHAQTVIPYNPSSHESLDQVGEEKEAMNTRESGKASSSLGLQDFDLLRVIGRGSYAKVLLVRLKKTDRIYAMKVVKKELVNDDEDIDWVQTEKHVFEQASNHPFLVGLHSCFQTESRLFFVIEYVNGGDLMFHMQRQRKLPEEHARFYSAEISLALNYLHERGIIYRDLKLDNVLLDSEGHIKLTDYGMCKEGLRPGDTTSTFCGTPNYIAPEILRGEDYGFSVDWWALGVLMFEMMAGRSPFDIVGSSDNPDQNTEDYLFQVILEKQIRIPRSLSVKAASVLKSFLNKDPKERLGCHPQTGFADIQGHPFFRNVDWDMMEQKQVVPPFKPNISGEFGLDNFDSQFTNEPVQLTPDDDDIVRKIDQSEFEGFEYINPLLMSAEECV
# Description: as §1
# SGK1 = biological target: T28, SGK1 (Homo sapiens, UniProt O00141, S422D); test: Off-target kinase profiling (KinaseProfiler); assay type: biochemical; conditions: 10 μM, ATP near Km
# T28 construct: purchased Millipore, Inc. (KinaseProfiler service)
# T28 sequence (O00141 60-431 S422D limits assumed): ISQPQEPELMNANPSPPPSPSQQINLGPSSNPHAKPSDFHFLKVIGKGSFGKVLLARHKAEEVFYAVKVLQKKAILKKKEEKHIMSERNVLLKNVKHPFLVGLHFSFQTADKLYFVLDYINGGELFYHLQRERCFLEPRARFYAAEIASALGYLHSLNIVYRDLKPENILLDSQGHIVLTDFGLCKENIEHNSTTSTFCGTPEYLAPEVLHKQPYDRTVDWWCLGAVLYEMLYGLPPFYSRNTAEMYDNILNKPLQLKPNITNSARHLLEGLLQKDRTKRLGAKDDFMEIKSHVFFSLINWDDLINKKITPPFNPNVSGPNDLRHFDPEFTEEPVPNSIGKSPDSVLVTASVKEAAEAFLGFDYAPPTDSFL
# Description: as §1
# TAO2 = biological target: T29, TAO2 (Homo sapiens, UniProt Q9UL54); test: Off-target kinase profiling (KinaseProfiler); assay type: biochemical; conditions: 10 μM, ATP near Km
# T29 construct: purchased Millipore, Inc. (KinaseProfiler service)
# Description: as §1
# TBK1 = biological target: T30, TBK1 (Homo sapiens, UniProt Q9UHD2); test: Off-target kinase profiling (KinaseProfiler); assay type: biochemical; conditions: 10 μM, ATP near Km
# T30 construct: purchased Millipore, Inc. (KinaseProfiler service)
# Description: as §1
# TNK2 = biological target: T31, TNK2 (Homo sapiens, UniProt Q07912); test: Off-target kinase profiling (KinaseProfiler); assay type: biochemical; conditions: 10 μM, ATP near Km
# T31 construct: purchased Millipore, Inc. (KinaseProfiler service)
# T31 sequence (Q07912 whole entry): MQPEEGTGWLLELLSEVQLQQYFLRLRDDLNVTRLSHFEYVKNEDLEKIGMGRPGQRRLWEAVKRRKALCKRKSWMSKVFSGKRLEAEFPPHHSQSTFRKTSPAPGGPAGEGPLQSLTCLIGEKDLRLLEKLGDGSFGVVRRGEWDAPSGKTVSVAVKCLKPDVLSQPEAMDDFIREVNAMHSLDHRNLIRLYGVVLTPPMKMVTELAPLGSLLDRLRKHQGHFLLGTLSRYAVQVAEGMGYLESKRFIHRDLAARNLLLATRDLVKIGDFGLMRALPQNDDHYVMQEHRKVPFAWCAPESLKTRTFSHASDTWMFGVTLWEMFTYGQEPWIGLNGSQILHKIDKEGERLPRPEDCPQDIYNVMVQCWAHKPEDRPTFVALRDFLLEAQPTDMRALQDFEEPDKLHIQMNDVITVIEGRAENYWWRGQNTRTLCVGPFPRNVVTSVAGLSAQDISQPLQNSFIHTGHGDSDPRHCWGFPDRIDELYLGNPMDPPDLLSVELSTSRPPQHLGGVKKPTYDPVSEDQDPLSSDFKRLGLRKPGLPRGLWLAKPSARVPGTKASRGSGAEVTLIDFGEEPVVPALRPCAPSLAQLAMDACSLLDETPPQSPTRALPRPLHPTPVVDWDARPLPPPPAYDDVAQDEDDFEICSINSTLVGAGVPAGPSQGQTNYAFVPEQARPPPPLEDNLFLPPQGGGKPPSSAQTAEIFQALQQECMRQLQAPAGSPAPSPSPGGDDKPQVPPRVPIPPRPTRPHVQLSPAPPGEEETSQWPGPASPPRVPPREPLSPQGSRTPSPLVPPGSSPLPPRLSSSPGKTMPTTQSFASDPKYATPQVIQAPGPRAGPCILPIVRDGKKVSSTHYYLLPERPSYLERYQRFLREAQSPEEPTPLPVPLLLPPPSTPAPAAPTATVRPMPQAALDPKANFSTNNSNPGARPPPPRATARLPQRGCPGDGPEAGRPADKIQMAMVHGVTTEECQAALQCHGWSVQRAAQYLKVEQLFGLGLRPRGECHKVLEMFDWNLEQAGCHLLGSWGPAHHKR
# Description: as §1
# p70S6K = biological target: T32, p70S6K (Homo sapiens, UniProt P23443); test: Off-target kinase profiling (KinaseProfiler); assay type: biochemical; conditions: 10 μM, ATP near Km
# T32 construct: purchased Millipore, Inc. (KinaseProfiler service)
# Description: as §1
smiles,measurement,setting,value
"COCc1ccc2cccc(NC(=O)Nc3c(C)c(-c4cnn(C)c4)nn3-c3ccccc3)c2c1 [Example 16, 1-(1′,4-dimethyl-1-phenyl-1H,1′H-[3,4′-bipyrazol]-5-yl)-3-(7-(methoxymethyl)naphthalen-1-yl)urea]",IC50,[1],< 100 nM
same,Avg POC,ALK,114.5 POC
same,Avg POC,ALK4,104.5 POC
same,Avg POC,Bmx,125 POC
same,Avg POC,CAMK1,106 POC
same,Avg POC,CAMK2g,98 POC
same,Avg POC,CDK2/cyclinE,143 POC
same,Avg POC,CK1gamma3,120 POC
same,Avg POC,CK2alpha2,101 POC
same,Avg POC,EGFR,106 POC
same,Avg POC,EphB1,122 POC
same,Avg POC,EphB3,102.5 POC
same,Avg POC,FGFR4,129 POC
same,Avg POC,Fer,122 POC
same,Avg POC,Fgr,116 POC
same,Avg POC,GRK7,97 POC
same,Avg POC,IR,92 POC
same,Avg POC,KDR,159 POC
same,Avg POC,MAP3K5,112.5 POC
same,Avg POC,MAP4K2,110.5 POC
same,Avg POC,MINK,118.5 POC
same,Avg POC,MSSK1,136.5 POC
same,Avg POC,MYLK,109.5 POC
same,Avg POC,MuSK,94 POC
same,Avg POC,NEK2,105.5 POC
same,Avg POC,PAK5,122.5 POC
same,Avg POC,PKCiota,109 POC
same,Avg POC,SGK1,169.5 POC
same,Avg POC,TAO2,119.5 POC
same,Avg POC,TBK1,121.5 POC
same,Avg POC,TNK2,115 POC
same,Avg POC,p70S6K,218 POC
